From the supplement of paper PMC10307832

Legend:
Assay in all cases: relative viability (nuclei count vs DMSO), 5 days (fraction); higher = more cells survive
[1] = compound: C1=CC(=CC=C1NC(=S)NNC2=C(C=C(C=C2[N+](=O)[O-])C(F)(F)F)[N+](=O)[O-])F [Kobe2602] + CCNC(=O)c1noc(-c2cc(C(C)C)c(O)cc2O)c1-c1ccc(CN2CCOCC2)cc1 [Luminespib] (partner 0.01 µM)
Outline: (§1)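 Lung cancer cell lines were pin-tool dosed in 1536-well plates on the day after seeding, with either a lone drug or a fixed anchor-drug dose plus five library-drug doses (not always all listed) in √10 steps. Nuclei were counted on 4× images after 5 days. Relative viability is the ratio of treated-well to vehicle-well nuclei counts, with each value a median of duplicate plates.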

[2] = compound: O[C@@H](COc1cccc2ncccc12)CN1CCN([C@@H]2c3ccccc3[C@@H]3[C@H](c4ccccc42)C3(F)F)CC1 [Zosuquidar] + CC(=O)Nc1cccc(-n2c(=O)n(C3CC3)c(=O)c3c(Nc4ccc(I)cc4F)n(C)c(=O)c(C)c32)c1 [Trametinib] (partner 0.02 µM)
Outline: as §1

[3] = compound: COc1cc2nccc(Oc3ccc(NC(=O)C4(C(=O)Nc5ccc(F)cc5)CC4)cc3)c2cc1OC [Cabozantinib] + Nc1ncn([C@H]2C[C@H](O)[C@@H](CO)O2)c(=O)n1 [Decitabine] (partner 2 µM)
Outline: as §1

[4] = compound: COc1cc2nccc(Oc3ccc(NC(=O)C4(C(=O)Nc5ccc(F)cc5)CC4)cc3)c2cc1OC [Cabozantinib] + N=C(N)NC(=N)NCCc1ccccc1 [Phenformin] (partner 250 µM)
Outline: as §1

UMC-11
relative viability ([1]; first compound 0.2 µM): 1.04 | relative viability ([1]; first compound 0.6325 µM): 1.12 | relative viability ([1]; first compound 2 µM): 0.959 | relative viability ([1]; first compound 6.325 µM): 1.04 | relative viability ([1]; first compound 20 µM): 1.05 | relative viability ([2]; first compound 0.01 µM): 0.668 | relative viability ([2]; first compound 0.03162 µM): 0.758 | relative viability ([2]; first compound 0.1 µM): 0.623 | relative viability ([2]; first compound 0.3162 µM): 0.833 | relative viability ([2]; first compound 1 µM): 0.606 | relative viability ([3]; first compound 0.02 µM): 0.654 | relative viability ([3]; first compound 0.06325 µM): 0.597 | relative viability ([3]; first compound 0.2 µM): 0.577 | relative viability ([3]; first compound 0.6325 µM): 0.615 | relative viability ([3]; first compound 2 µM): 0.554 | relative viability ([4]; first compound 0.02 µM): 0.309 | relative viability ([4]; first compound 0.06325 µM): 0.35 | relative viability ([4]; first compound 0.2 µM): 0.335 | relative viability ([4]; first compound 0.6325 µM): 0.32 | relative viability ([4]; first compound 2 µM): 0.331
